According to patent US8394398B2 (Abbott Laboratories, priority 1997, dated 2013):
Read-outs that look alike come from different tables or passages of the source.

Legend:
[1] = Phase 1 multiple escalating dose study, QD intravenous infusion for 14 days, safety and pharmacokinetics; assay type: in vivo, human; conditions: for AUC(0-inf) / Cmax / clearance / Vd / half-life / AUC: human, whole blood; for AUC: Day 14, blood
Description: The present study was designed to evaluate the pharmacokinetics of zotarolimus following multiple dosing and to assess its safety while maximizing systemic exposure of healthy subjects. […] The study investigated pharmacokinetics and safety of zotarolimus in a Phase 1, multiple dose-escalation study following multiple intravenous infusions of 200, 400 and 800 μg doses, every day for fourteen consecutive days in healthy subjects.
Phase 1, multiple-escalating dose, double-blind, placebo-controlled, randomized study. Seventy-two subjects equally divided in 3 once-daily (QD) regimens (200, 400 or 800 μg QD with 16 active and 8 placebo per regimen) were administered a 60-minute QD IV infusion of zotarolimus for 14 consecutive days. Blood samples were collected over 24 hours following the first dose, before dosing on days 10, 11, 12, 13, and for 168 hours following Day 14 dose. Urine samples were collected over 24 hours on days 1, 14, 16, 18 and 20. Blood and urine zotarolimus concentrations were determined using a validated LC/MS/MS method. Pharmacokinetic parameters were determined by compartmental analysis. All Day-AUC0-∞ (area under blood concentration-time curve from time 0 to infinity including all 14 doses) was calculated. Dose and time-linearity and achievement of steady-state were evaluated. Fraction of drug eliminated in urine was determined.
Within each group, subjects were equally divided at the two study sites with each site enrolling 12 subjects (zotarolimus, eight subjects; placebo four subjects). The dosing scheme within each dose group is presented below:
Subjects received, under fasting conditions, a single 60-minute daily (QD) intravenous infusion of 200, 400, or 800 μg of zotarolimus or a matching intravenous infusion of placebo for Groups I, II and III, respectively on Study Days 1 through 14. The drug was administered via a syringe pump connected to a y-site device, which also infused 125-150 mL of 5% aqueous dextrose solution (D5W) over 60 minutes. The groups were dosed sequentially with at least 7 days separating the last dose of the previous group and the first dose of the next group during which time safety data from the previous group was analyzed. Dose escalation was dependent on the safety analysis of the lower dose group.
Five (5)-mL blood samples were collected in potassium EDTA containing tubes to evaluate zotarolimus concentrations prior to dosing (0 hour), and at 0.25, 0.5, 1.0, 1 hour 5 min, 1.25, 1.5, 2, 3, 4, 8, 12, 18 and 24 hours after starting infusion on Study Days 1 and 14. Additional samples were collected at 36, 48, 72, 96, 120, 144 and 168 hours after starting infusion on Study Day 14 and before dosing on Days 10, 11, 12 and 13. Urine was collected in containers without preservatives over the following intervals: 0 to 6, 6 to 12, 12 to 18 and 18 to 24 hours after starting the infusion on Study Days 1, 14, 16, 18 and 20.
Blood and urine concentrations of zotarolimus were determined using a validated liquid/liquid extraction HPLC tandem mass spectrometric method (LC-MS/MS). The lower limit of quantification of zotarolimus was 0.20 ng/mL using 0.3 mL blood sample and 0.50 ng/mL using 0.3 mL urine sample.
Safety was evaluated based on adverse event, physical examination, vital signs, ECG, injection site and laboratory tests assessments
The pharmacokinetic parameter values of zotarolimus were estimated for individual subjects using compartmental analysis. Data from the first dose on Study Day 1, the last dose on Study Day 14 and the trough concentrations on Study Days 10, 11, 12 and 13 were simultaneously modeled for each individual subject. […]

[2] = system: human coronary artery smooth muscle cells (hCaSMC); assay: cytokine production by TNFα-treated human coronary artery smooth muscle cells (ELISA); assay type: cell-based; conditions: hCaSMC, TNFα (5 ng/ml), 24 hours
Description: Experiments were performed to determine the effects of zotarolimus, sirolimus and dexamethasone on the production of TNFα, IL-6 and MCP-1 by activated human monocytes In addition to monocytes and macrophages two other key cell types are involved in the etiology of restenosis, arterial smooth muscle and endothelial cells. These cells are activated and produce cytokines in response to TNFα. […] The activation of cytokine production by human coronary artery smooth muscle and endothelial cells following TNFα treatment was determined by measuring interleukine-8 (IL-8), MCP-1 and IL-6 production. As shown by the results of the experiments described below, the ability of these compounds to inhibit the production of cytokines supports their use in combination as anti-restenotic agents since these cytokines play a role in the development of restenosis. […] After 24 hours, the supernatants were carefully collected and TNFα, IL-6 and MCP-1 levels determined by ELISA. Primary cultures of human coronary artery endothelial and smooth muscle cells were obtained from Cambrex and maintained as described by the vendor. […] After 24 hours the supernatants were removed and replaced with media containing TNFα (5 ng/ml) in the presence and absence of various concentrations of zotarolimus, dexamethasone or sirolimus. The cells were incubated for 24 hours and the supernatants carefully removed and frozen until measurement. Cytokine levels were measured in the supernatants by sandwich ELISA.

With `CO[C@H]1C[C@@H]2CC[C@@H](C)[C@@](O)(O2)C(=O)C(=O)N2CCCC[C@H]2C(=O)O[C@H]([C@H](C)C[C@@H]2CC[C@H](n3cnnn3)[C@H](OC)C2)CC(=O)[C@H](C)/C=C(\C)[C@@H](O)[C@@H](OC)C(=O)[C@H](C)C[C@H](C)/C=C/C=C/C=C/1C` [zotarolimus] the “fraction of dose recovered in the urine” value ([1]; 800 μg QD dose group, within a 24-hour period on Day 1 and Day 14) was “approximately 0.1%”, the “most common treatment-emergent adverse events” value ([1]; 200, 400, 800 μg QD IV for 14 days) was “pain, headache, injection site reaction, dry skin, abdominal pain, diarrhea and rash” and the “V1, range of means over the studied regimens” value ([1]; 200-800 μg QD IV for 14 days) was 11.3 to 13.1 L. For the same compound, the “steady state for QD dosing reached” value ([1]; first trough samples measured on Day 10) was at most 10 days, the AUC(0-inf) ([1]; intravenous, 200 μg QD dose group, read-out: median All Day −AUC0-∞) was 677 ng·h/mL and the AUC(0-inf) ([1]; intravenous, 400 μg QD dose group, read-out: median All Day −AUC0-∞) was 1440 ng·h/mL. It also gave an AUC(0-inf) ([1]; intravenous, 800 μg QD dose group, read-out: median All Day −AUC0-∞) of 2400 ng·h/mL, a Cmax ([1]; 200 μg QD IV infusion for 14 days, blood, secondary predicted parameter) of 11.2 ± 1.1 ng/mL and a clearance ([1]; 200 μg QD IV infusion for 14 days, blood, secondary predicted parameter, read-out: CL (converted)) of 70 mL/min. It also gave a Vd ([1]; 200 μg QD IV infusion for 14 days, blood, secondary predicted parameter, read-out: Vss) of 92.5 ± 13 L, a half-life ([1]; 200 μg QD IV infusion for 14 days, blood, harmonic mean ± pseudo-standard deviation, read-out: t½ (converted)) of 24.7 ± 4.6 h and an AUC ([1]; 200 μg QD IV infusion, secondary predicted parameter) of 49 ± 6.2 ng·h/mL. It also gave a Cmax ([1]; 400 μg QD IV infusion for 14 days, blood, secondary predicted parameter) of 21.4 ± 2.4 ng/mL, a clearance ([1]; 400 μg QD IV infusion for 14 days, blood, secondary predicted parameter, read-out: CL (converted)) of 66.7 mL/min and a Vd ([1]; 400 μg QD IV infusion for 14 days, blood, secondary predicted parameter, read-out: Vss) of 112 ± 21.1 L. The half-life ([1]; 400 μg QD IV infusion for 14 days, blood, harmonic mean ± pseudo-standard deviation, read-out: t½ (converted)) was 31 ± 4.6 h, the AUC ([1]; 400 μg QD IV infusion, secondary predicted parameter) was 104 ± 19 ng·h/mL and the Cmax ([1]; 800 μg QD IV infusion for 14 days, blood, secondary predicted parameter) was 38.7 ± 6.3 ng/mL. The clearance ([1]; 800 μg QD IV infusion for 14 days, blood, secondary predicted parameter, read-out: CL (converted)) was 76.7 mL/min, the Vd ([1]; 800 μg QD IV infusion for 14 days, blood, secondary predicted parameter, read-out: Vss) was 118 ± 18.7 L and the half-life ([1]; 800 μg QD IV infusion for 14 days, blood, harmonic mean ± pseudo-standard deviation, read-out: t½ (converted)) was 30 ± 4.1 h. The AUC ([1]; 800 μg QD IV infusion, secondary predicted parameter) was 180 ± 17.4 ng·h/mL, the clearance ([1]; 200-800 μg QD IV for 14 days, read-out: CL, range of means over the studied regimens) was 66.7 to 76.7 mL/min and the Vd ([1]; 200-800 μg QD IV for 14 days, read-out: Vss, range of means over the studied regimens) was 92.5 to 118 L. For the same compound, the half-life ([1]; 200-800 μg QD IV for 14 days, read-out: terminal elimination t1/2, range of means over the studied regimens) was 24.7 to 31 h, the AUC(0-inf) ([1]; 200-800 μg QD IV, time 0 to infinity including all 14 doses, read-out: All Day-AUC0-∞, range over the studied regimens) was 677 to 2400 ng·h/mL and the “dose proportionality and time dependence of pharmacokinetics” value ([1]; intravenously for 14 consecutive days) was “dose proportional and time invariant”. For the same compound, the “Maximal Inhibitory Activity, IL-6” value [2] was “− (− indicates maximal inhibitory activity less than 50% of control)”, the “Maximal Inhibitory Activity, Il-8” value [2] was “− (− indicates maximal inhibitory activity less than 50% of control)” and the “Maximal Inhibitory Activity, MCP-1” value [2] was “− (− indicates maximal inhibitory activity less than 50% of control)”.
